Assay results taken from PubChem BioAssay (NCI).
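These data come from cells grown in 96-well plates and exposed to compound for 48 hours at five concentrations. Abbreviation: GI50, concentration required for 50% inhibition of growth. TGI: total growth inhibition.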

Assays:
Assay in all cases: NCI tumour cell line growth inhibition, 48 h
LOX IMVI melanoma = test system: LOX IMVI melanoma
OVCAR-3 ovarian = test system: OVCAR-3 ovarian
KM12 colon = test system: KM12 colon
CAKI-1 renal = test system: CAKI-1 renal
UACC-257 melanoma = test system: UACC-257 melanoma
SF-539 CNS = test system: SF-539 CNS
COLO 205 colon = test system: COLO 205 colon
NCI/ADR-RES ovarian = test system: NCI/ADR-RES ovarian
SK-MEL-5 melanoma = test system: SK-MEL-5 melanoma
TK-10 renal = test system: TK-10 renal

Row | Compound | TGI (LOX IMVI melanoma) [µM] | TGI (OVCAR-3 ovarian) [µM] | TGI (KM12 colon) [µM] | TGI (CAKI-1 renal) [µM] | TGI (UACC-257 melanoma) [µM] | TGI (SF-539 CNS) [µM] | TGI (COLO 205 colon) [µM] | TGI (NCI/ADR-RES ovarian) [µM] | TGI (SK-MEL-5 melanoma) [µM] | TGI (TK-10 renal) [µM] | GI50 (LOX IMVI melanoma) [nM] | GI50 (OVCAR-3 ovarian) [nM] | GI50 (KM12 colon) [nM] | GI50 (CAKI-1 renal) [nM] | GI50 (UACC-257 melanoma) [nM] | GI50 (SF-539 CNS) [nM] | GI50 (COLO 205 colon) [nM] | GI50 (NCI/ADR-RES ovarian) [nM] | GI50 (SK-MEL-5 melanoma) [nM] | GI50 (TK-10 renal) [nM]
1 | Brc1ccc2c(-c3nc(-c4c[nH]c5ccccc45)cs3)c[nH]c2c1 | > 73 | > 100 | > 47.3 | > 100 | > 100 | 69.5 | > 79.7 | > 100 | 57.1 | 45.8 |  |  |  |  |  |  |  |  |  | 
2 | COc1c(-c2cc(C)c(Cl)c(=O)[nH]2)c(O)c(OC)c2occc12 | > 100 | > 100 | > 100 | > 100 | > 100 | > 100 | > 100 | > 100 | > 100 | > 100 |  |  |  |  |  |  |  |  |  | 
3 | COC(c1ccsc1)C(C#N)(C#N)N=Cc1ccsc1 (stereo not given) | 22 | 42.2 | 32.3 | 19.2 | 29.6 | 30.4 | 33.1 | 53.1 | 27.7 | 36.2 |  |  |  |  |  |  |  |  |  | 
4 | CC(C)(C)c1cc(C(O)(C(=O)O)C(=O)O)cc(C(C)(C)C)c1O | > 100 | > 100 | > 100 | > 100 | > 100 | > 100 | > 100 | > 100 | > 100 | > 100 |  |  |  |  |  |  |  |  |  | 
5 | CSc1nc2ccccc2c(=O)n1/N=C1\C(=O)N(CN2CCOCC2)c2ccc(Cl)cc21 | 33.3 | > 100 | > 100 | > 100 | 51.2 | 75.6 | 36.6 | > 100 | > 100 | 71.4 |  |  |  |  |  |  |  |  |  | 
6 | O=C(Nc1ccccc1)c1cc2c(cc1Cl)Sc1nccn1S2(=O)=O | 39 | 59.3 | 54.4 | 7.53 | 53.7 | > 83.6 | > 56.6 | > 100 | 31.1 | > 100 |  |  |  |  |  |  |  |  |  | 
7 | Cc1cc(S(=O)(=O)Nc2nc3ccsc3c(=O)n2N)c(S)cc1Cl | > 100 | > 100 | > 100 | > 100 | > 100 | > 100 | > 100 | > 100 | > 100 | > 100 |  |  |  |  |  |  |  |  |  | 
8 | CC1(C)C2CCC1(CS(=O)(=O)Nc1ccccc1)C(=O)C2 (stereo not given) | > 100 | > 100 | > 100 | > 100 | > 100 | > 100 | > 100 | > 100 | > 100 | > 100 |  |  |  |  |  |  |  |  |  | 
9 | O=C1Cc2c(-c3ccc(Cl)cc3)cc(-c3ccccc3)nc2-c2ccccc2N1 | 22.8 | 27.1 | > 100 | 19.4 | > 100 | 25.4 | 12.9 | 26.4 | 21 | 21.3 |  |  |  |  |  |  |  |  |  | 
10 | CN(Cc1c2ccccc2cc2ccccc12)S(=O)(=O)c1ccc(-c2c3nc(c(-c4ccc(S(=O)(=O)N(C)Cc5c6ccccc6cc6ccccc56)cc4)c4ccc([nH]4)c(-c4ccc(S(=O)(=O)N(C)Cc5c6ccccc6cc6ccccc56)cc4)c4nc(c(-c5ccc(S(=O)(=O)N(C)Cc6c7ccccc7cc7ccccc67)cc5)c5ccc2[nH]5)C=C4)C=C3)cc1 | > 100 | > 100 | > 100 | > 100 | > 100 | > 100 | > 100 | > 100 | > 100 | > 100 |  |  |  |  |  |  |  |  |  | 
11 | CCN1CCN(C(=O)[C@]23CC[C@@H](C)[C@H](C)[C@@H]2C2=CC[C@@H]4[C@@]5(C)C/C(=C/c6cccnc6)C(=O)C(C)(C)[C@@H]5CC[C@@]4(C)[C@]2(C)CC3)CC1 | 3.06 | 3.19 | 3.56 | 11.8 | 5.95 | 3.05 | 5.12 | 3.32 | 3.14 | 9.4 | 1580 | 1650 | 1750 | 2120 | 2210 | 1660 | 2190 | 1590 | 1750 | 2870
12 | COc1cc(/C=C2\C[C@H]3[C@@H]4CC=C5C[C@@H](N6CCCC6)CC[C@]5(C)[C@H]4CC[C@]3(C)[C@H]2O)cc(OC)c1OC | 20.8 | 31.2 | 23 | 29.8 | 28.5 | 32.2 | 36.5 | 40.8 | 30 | 34.6 |  |  |  |  |  |  |  |  |  | 
13 | CCOC(=O)C1=CN=C2C(=O)N(c3ccccc3)N(C)C2(C)C1=N (stereo not given) | > 100 | > 100 | > 100 | > 100 | > 100 | > 100 | > 100 | > 100 | > 100 | > 100 |  |  |  |  |  |  |  |  |  | 
